For assay [1], the target named is T1, Protein kinase C zeta type (Homo sapiens, UniProt Q05513).
T1 sequence (Q05513 whole entry): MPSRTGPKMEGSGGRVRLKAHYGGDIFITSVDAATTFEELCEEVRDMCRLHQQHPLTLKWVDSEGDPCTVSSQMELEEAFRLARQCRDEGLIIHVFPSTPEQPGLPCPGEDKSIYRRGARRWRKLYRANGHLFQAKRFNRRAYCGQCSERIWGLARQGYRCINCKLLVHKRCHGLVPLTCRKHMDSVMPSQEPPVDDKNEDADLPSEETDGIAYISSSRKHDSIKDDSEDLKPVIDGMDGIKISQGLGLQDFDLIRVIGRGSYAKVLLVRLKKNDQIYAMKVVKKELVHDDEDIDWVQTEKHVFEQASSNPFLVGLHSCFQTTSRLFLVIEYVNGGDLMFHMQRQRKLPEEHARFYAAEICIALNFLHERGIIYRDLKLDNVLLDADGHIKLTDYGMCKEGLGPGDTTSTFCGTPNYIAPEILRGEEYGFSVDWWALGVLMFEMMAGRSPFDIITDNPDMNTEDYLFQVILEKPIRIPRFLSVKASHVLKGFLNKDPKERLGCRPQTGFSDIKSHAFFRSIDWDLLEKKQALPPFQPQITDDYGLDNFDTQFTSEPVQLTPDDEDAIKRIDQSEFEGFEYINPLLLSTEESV
In words: PKC AlphaScreen Assay. The note with it: pH 7.4. On the procedure: (§1) Interaction assays were performed using the Alpha-Screen (amplified luminescent proximity homogeneous assay) technology, as described previously [Lopez-Garcia et al., Chem. Biol., 18:1463-1473; Zhang et al., Chem. Biol., 21:754-765]. The bead-based assay allows the detection of biomolecular interactions and the effect of small compounds. Briefly, the Alpha-Screen assay was performed in a finalvolume of 25 μL in white 384-well microtiter plates (Greiner Bio-One) with His-PKCι-CD (40 nM) and biotin-pseudosubstrate (80 nM) or His-PKCι-CD (15 nM) and biotin-ROCKtide (100 nM) in a buffer containing 50 mM Tris-HCl (pH 7.4), 100 mM NaCl, 0.01% (v/v) Tween 20, 0.1% (w/v) BSA, 2 mM dithiothreitol (for the PKCι-Rocktide interaction) or 5 mM dithiothreitol (for the PKCι-pseudosubstrate interaction), and the corresponding concentration of the compound. Five microliters of beads at a concentration of 20 μg/mL was added to the mixture (nickel chelate-coated acceptor beads and streptavidin-coated donor beads), and after incubation for 90 min, Alpha-Screen counts were obtained in an EnVision Multiplate reader.

Assay [2] has as its target T2, Protein kinase C iota type (Homo sapiens, UniProt P41743).
T2 sequence (P41743 whole entry): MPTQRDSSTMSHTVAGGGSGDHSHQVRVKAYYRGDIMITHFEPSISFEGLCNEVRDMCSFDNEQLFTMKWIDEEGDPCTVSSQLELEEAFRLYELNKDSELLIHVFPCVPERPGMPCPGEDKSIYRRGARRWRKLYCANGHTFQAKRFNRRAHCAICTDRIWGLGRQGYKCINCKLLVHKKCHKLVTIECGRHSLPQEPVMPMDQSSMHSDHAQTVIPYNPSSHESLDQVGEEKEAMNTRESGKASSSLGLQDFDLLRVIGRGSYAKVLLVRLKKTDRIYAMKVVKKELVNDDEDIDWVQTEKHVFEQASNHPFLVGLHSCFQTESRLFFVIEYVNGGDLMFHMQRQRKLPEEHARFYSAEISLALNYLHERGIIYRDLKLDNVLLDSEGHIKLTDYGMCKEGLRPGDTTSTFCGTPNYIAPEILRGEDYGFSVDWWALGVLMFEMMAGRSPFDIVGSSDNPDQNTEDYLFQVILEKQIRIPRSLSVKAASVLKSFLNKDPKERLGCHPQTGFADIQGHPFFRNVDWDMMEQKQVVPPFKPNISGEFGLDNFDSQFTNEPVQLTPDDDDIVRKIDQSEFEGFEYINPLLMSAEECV
In words: PKC AlphaScreen Assay. The note with it: pH 7.4. Here is the method:
as §1

Structures are written as SMILES.

For the molecule `CCOC(=O)C1=C(O)C(=O)N(c2nc3ccc(Cl)cc3[nH]2)C1c1ccc(Cl)cc1` (configuration not stated) [PS212], the IC50 was 20.5 µM in assay [1] and 43.2 µM in assay [2].
On to `CCOC(=O)C1=C(O)C(=O)N(c2nc3ccc(Cl)cc3s2)C1c1cccs1` (configuration not stated) [PS267], for which the IC50 is 17.8 µM in assay [1] and 36.4 µM in assay [2].
With `CCOC(=O)C1=C(O)C(=O)N(c2nc3ccc(Cl)cc3[nH]2)C1c1ccccc1` (configuration not stated) [PS312], the IC50 in assay [1] worked out at 44.1 µM.
Consider `CCOC(=O)C1=C(O)C(=O)N(c2nc3ccc(C)cc3s2)C1c1ccc(-c2ccc(Cl)cc2)o1` (configuration not stated) [PS432], for which the values for the 50% inhibitory concentration (IC50) in assay [1] and in assay [2] were 18.5 µM and 16.9 µM, respectively.
